Source: US4748240A, “Psychotropic bicyclic imides” (American Home Products Corporation, priority 1987, dated 1988)
Like-named read-outs stand apart in the source and are kept apart here.

Key:
D-2 dopamine receptor = biological target: T1, D-2 dopamine receptor (Rattus norvegicus, UniProt P61169); experiment: [^3 H] Spiroperidol binding inhibition (D-2 dopamine receptor, homogenized limbic brain tissue)
T1 construct: from tissue; host or cells: homogenized limbic brain tissue
From the text: The results of this testing with compounds representative of the invention whose production is exemplified, infra, are as follows: […]

[1] = test system: conditioned avoidance responding; experiment: Conditioned avoidance, shelf-jump response; type: in vivo, rat (male CD, Charles River); details: Rattus norvegicus, ip; single dose 40 mg/kg
From the text: (§1) The antipsychotic properties of the compounds of this invention were established by standard pharmacologically accepted procedures involving conditioned avoidance studies in which trained male CD rats (Charles River), 400-450 g. body weight are exposed to a fifteen second warning tone (conditioned stimulus) continued for an additional fifteen seconds accompanied by electric shock. The rat can avoid the electric shock by jumping to an exposed shelf (shelf-jump response). A response during the initial warning tone is considered an avoidance response, while a response during shock delivery is considered as escape response. The shelf-jump response test procedure follows that of Herman et al., Comm. in Psychopharm., 3, pp. 165-171 (1979). The compounds of this invention were tested at a single dose (40 mg./kg. i.p.) in this procedure and were rated relative to their inhibition of conditioned avoidance responding. A similar test procedure (Discrete Trial) in which a lever press was substituted for a shelf-jump was used to establish the oral (p.o.) activity of the test compounds. Orally active compounds were tested over a full dose range and the Avoidance Block activities reported as "AB50 's" (mg./kg.).

[2] = test system: conditioned avoidance responding; experiment: Conditioned avoidance, Discrete Trial (lever press); type: in vivo, rat (male CD, Charles River); details: for Conditioned Avoidance, Discrete Trial AB50: p.o.; for ED50: Rattus norvegicus, po, read-out: Conditioned Avoidance, Discrete Trial AB50
From the text: as §1

[3] = test system: apomorphine-induced stereotyped behavior and climbing; experiment: Antagonism of apomorphine-induced stereotyped behavior and climbing; type: in vivo, mouse (CF-1, Charles River); details: for Apomorphine Antagonism, Stereotypy ED50 / Apomorphine Antagonism, Climbing ED50: p.o.; for Apomorphine Antagonism, Stereotypy ED50 / ED50 / Apomorphine Antagonism, Climbing ED50: apomorphine 1 mg/kg s.c.; for ED50: Mus musculus, po; for Ratio of ED50 for stereotyped behavior to ED50 for climbing: standard antipsychotic drugs, high ratio = low extrapyramidal liability
Protocol: Readings are repeated every five minutes during a thirty minute test session. […] The ratio of the ED50 for stereotyped behavior of the ED50 for climbing is calculated.

[4] = biological target: T2, 5-HT1A serotonin receptor (Rattus norvegicus, UniProt P19327); experiment: Inhibition of [^3 H] 8-OH DPAT binding
T2 construct: from tissue
T2 sequence (P19327 1-422): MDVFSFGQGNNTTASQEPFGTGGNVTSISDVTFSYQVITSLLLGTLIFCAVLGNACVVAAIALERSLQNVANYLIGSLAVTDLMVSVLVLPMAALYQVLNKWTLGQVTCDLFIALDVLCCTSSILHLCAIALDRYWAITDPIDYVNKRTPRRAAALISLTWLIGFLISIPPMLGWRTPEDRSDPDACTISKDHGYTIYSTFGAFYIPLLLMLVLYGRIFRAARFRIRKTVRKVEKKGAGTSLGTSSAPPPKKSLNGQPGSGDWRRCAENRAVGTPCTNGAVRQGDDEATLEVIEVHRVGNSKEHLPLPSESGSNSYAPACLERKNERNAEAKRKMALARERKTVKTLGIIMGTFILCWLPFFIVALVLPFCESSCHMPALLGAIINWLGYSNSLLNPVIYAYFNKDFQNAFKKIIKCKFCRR
From the text: 8-OH DPAT (dipropylaminotetralin) from the 5-HT1A serotonin receptor by the procedure of Hall et al., J. Neurochem.

[5] = read-out: Apomorphine Antagonism, Climbing ED50
[6] = read-out: Apomorphine Antagonism, Stereotypy ED50

T1 sequence (P61169 whole entry): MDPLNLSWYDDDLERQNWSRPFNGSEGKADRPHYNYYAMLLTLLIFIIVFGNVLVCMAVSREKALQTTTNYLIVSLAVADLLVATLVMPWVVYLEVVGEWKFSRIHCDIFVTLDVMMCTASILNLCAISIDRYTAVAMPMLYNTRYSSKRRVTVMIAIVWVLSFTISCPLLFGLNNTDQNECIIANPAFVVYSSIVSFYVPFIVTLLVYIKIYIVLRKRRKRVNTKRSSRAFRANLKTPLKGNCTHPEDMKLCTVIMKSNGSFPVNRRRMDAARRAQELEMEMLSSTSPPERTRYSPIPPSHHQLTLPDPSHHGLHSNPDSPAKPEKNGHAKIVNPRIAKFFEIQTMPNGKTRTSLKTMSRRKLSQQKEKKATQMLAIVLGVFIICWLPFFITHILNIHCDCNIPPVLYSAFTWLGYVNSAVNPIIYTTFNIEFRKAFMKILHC

SMILES	inhibition at 1 µM (D-2 dopamine receptor)	inhibition in vivo at 40 mg/kg [1]	Conditioned Avoidance, Discrete Trial AB50 [2]	Apomorphine Antagonism, Stereotypy ED50 [3]	Ki [4]	Ki (D-2 dopamine receptor)	ED50 [3, 5]	ED50 [2]	Apomorphine Antagonism, Climbing ED50 [3]	inhibition at 1 µM [4]	ED50 [3, 6]	Affinity for the 5-HT1A serotonin receptor (in words) [4]	Ratio of ED50 for stereotyped behavior to ED50 for climbing [3]
O=C1C2CCCC(C2)C(=O)N1CCCCN1CCN(c2ncccn2)CC1 [Example 1, 3-[4-[4-(2-Pyrimidinyl)-1-piperazinyl]butyl]-3-azabicyclo[3.3.1]nonane-2,4-dione]	38%	~80%	inactive	inactive	10 nM	–	–	–	–	–	–	–	–
O=C1C2CCC(C2)C(=O)N1CCCCN1CCN(c2ncccn2)CC1 [Example 2, 3-[4-[4-(2-Pyrimidinyl)-1-piperazinyl]butyl]-3-azabicyclo[3.2.1]octane-2,4-dione]	–	> 20%	weak	inactive	106 nM	2610 nM	–	–	–	–	–	–	–
O=C1C2CCC(O2)C(=O)N1CCCCN1CCN(c2ncccn2)CC1 [Example 3, 3-[4-[4-(2-Pyrimidinyl)-1-piperazinyl]butyl]-8-oxa-3-azabicyclo[3.2.1]octane-2,4-dione]	44%	~80%	weak	inactive	31 nM	–	–	–	–	–	–	–	–
O=C1C2CCC(S2)C(=O)N1CCCCN1CCN(c2ncccn2)CC1 [Example 4, 3-[4-[4-(2-Pyrimidinyl)-1-piperazinyl]butyl]-8-thia-3-azabicyclo[3.2.1]octane-2,4-dione]	12%	> 20%	inactive	inactive	46 nM	–	53.3 mg/kg	–	–	–	–	–	–
O=C1C2CCCC(S2)C(=O)N1CCCCN1CCN(c2ncccn2)CC1 [Example 5, 3-[4-[4-(2-Pyrimidinyl)-1-piperazinyl]butyl]-9-thia-3-azabicyclo[3.3.1]nonane-2,4-dione]	27%	> 20%	–	inactive	16 nM	–	–	47.3 mg/kg	inactive	–	–	–	–
O=C1C2CCCC(C(=O)N1CCCCN1CCN(c3ncccn3)CC1)[S+]2[O-] (stereo not drawn) [Example 6, 3-[4-[4-(2-Pyrimidinyl)-1-piperazinyl]butyl]-9-thia-3-azabicyclo[3.3.1]nonane-2,4-dione-9-oxide]	14%	> 20%	inactive	inactive	90 nM	–	–	–	inactive	–	–	–	–
O=C1C2CCCC(C2)C(=O)N1CCCCN1CCN(c2cncc(Cl)n2)CC1 [Example 7, 2-[4-[4-(6-Chloro-2-pyrazinyl)-1-piperazinyl]butyl]-3-azabicyclo[3.3.1]nonane-2,4-dione]	21%	~80%	–	inactive	31 nM	–	–	34.1 mg/kg	–	–	–	–	–
O=C1C2CCC(C2)C(=O)N1CCCCN1CCN(c2cncc(Cl)n2)CC1 [Example 8, 3-[4-[4-(6-Chloro-2-pyrazinyl)-1-piperazinyl]butyl]-3-azabicyclo[3.2.1]octane-2,4-dione]	12%	~80%	–	inactive	–	–	15.7 mg/kg	33.6 mg/kg	–	68%	–	–	–
O=C1C2CCC(C2)C(=O)N1CCCCN1CCN(c2ccc3ccccc3n2)CC1 [Example 9, 3-[4-[4-(2-Quinolyl)-1-piperazinyl]butyl]-3-azabicyclo[3.2.1]octane-2,4-dione]	31%	> 20%	–	inactive	60 nM	–	40.9 mg/kg	98.2 mg/kg	–	–	–	–	–
O=C1C2CCC(C2)C(=O)N1CCCCN1CCN(c2cccc(C(F)(F)F)c2)CC1 [Example 10, 3-[4-[4-[3-(Trifluoromethyl)phenyl]-1-piperazinyl]butyl]-3-azabicyclo[3.2.1]octane-2,4-dione]	–	~80%	–	–	3.61 nM	80 nM	1.05 mg/kg	7.03 mg/kg	–	–	4.98 mg/kg	–	–
O=C1C2CCC(C2)C(=O)N1CCCCN1CCN(c2cccc(Cl)c2)CC1 [Example 11, 3-[4-[4-(3-Chlorophenyl)-1-piperazinyl]butyl]-3-azabicyclo[3.2.1]octane-2,4-dione]	–	~80%	–	–	3.89 nM	130 nM	0.79 mg/kg	27.1 mg/kg	–	–	2.2 mg/kg	–	–
O=C1C2CCC(O2)C(=O)N1CCCCN1CCN(c2cncc(Cl)n2)CC1 [Example 12, 3-[4-[4-(6-Chloro-2-pyrazinyl)-1-piperazinyl]butyl]-8-oxa-3-azabicyclo[3.2.1]octane-2,4-dione]	7%	> 20%	weak	inactive	–	–	51.6 mg/kg	–	–	54%	–	–	–
O=C1C2CCCC(O2)C(=O)N1CCCCN1CCN(c2ncccn2)CC1 [Example 13, 3-[4-[4-(2-Pyrimidinyl)-1-piperazinyl]butyl]-9-oxa-3-azabicyclo[3.3.1]nonane-2,4-dione]	17%	~80%	–	inactive	122 nM	–	0.24 mg/kg	86.2 mg/kg	–	–	–	–	–
O=C1C2CCCC(S2)C(=O)N1CCCCN1CCN(c2cncc(Cl)n2)CC1 [Example 14, 3-[4-[4-(6-Chloro-2-pyrazinyl)-1-piperazinyl]butyl]-9-thia-3-azabicyclo[3.3.1]nonane-2,4-dione]	34%	> 20%	–	inactive	35.2 nM	–	–	35.6 mg/kg	–	–	–	–	–
O=C1C2CCCC(O2)C(=O)N1CCCCN1CCN(c2cncc(Cl)n2)CC1 [Example 15, 3-[4-[4-(6-Chloro-2-pyrazinyl)-1-piperazinyl]butyl]-9-oxa-3-azabicyclo[3.3.1]nonane-2,4-dione]	21%	~80%	weak	inactive	–	–	–	–	–	63%	–	–	–
O=C1C2CCCC(C2)C(=O)N1CCCCN1CCN(c2cnccn2)CC1 [Example 16, 3-[4-[4-(2-Pyrazinyl)-1-piperazinyl]butyl]-3-azabicyclo[3.3.1]nonane-2,4-dione]	12%	~80%	inactive	–	129 nM	–	9.17 mg/kg	–	–	–	54.1 mg/kg	–	–
COc1ccccc1N1CCN(CCCCN2C(=O)C3CCC(C3)C2=O)CC1 [Example 17, 3-[4-[4-(2-Methoxyphenyl)-1-piperazinyl]butyl]-3-azabicyclo[3.2.1]octane-2,4-dione]	0%	~80%	–	–	5 nM	–	0.83 mg/kg	29.4 mg/kg	–	–	5.83 mg/kg	–	–
CC1(C)C2CCC1C(=O)N(CCCCN1CCN(c3cncc(Cl)n3)CC1)C2=O [Example 18, 3-[4-[4-(6-Chloro-2-pyrazinyl)-1-piperazinyl]butyl]-8,8-dimethyl-3-azabicyclo[3.2.1]octane-2,4-dione]	21%	> 20%	inactive	inactive	–	–	43 mg/kg	–	–	76%	–	–	–
O=C1CC2(CCCC2)CC(=O)N1CCCCN1CCN(c2ncccn2)CC1 [buspirone, reference compound]	–	–	–	–	–	–	–	–	–	–	–	potent affinity	–
CN(C)CCCN1c2ccccc2Sc2ccc(Cl)cc21 [chlorpromazine, reference compound]	–	–	–	–	–	–	–	–	–	–	–	–	1.51
O=C(CCCN1CCC(O)(c2ccc(Cl)cc2)CC1)c1ccc(F)cc1 [haloperidol, reference compound]	–	–	–	–	–	–	–	–	–	–	–	–	1.00
